Source: patent US9057929B2, “Quinolinium single crystals for use in nonlinear optics” (AJOU UNIVERSITY INDUSTRY-ACADEMIC COOPERATION FOUNDATION, priority 2011, dated 2015)
Where two headings read alike, the source gives them in different places.

Tests used:
[1] = Thermal properties by DSC and TGA at a scanning rate of 10° C./min (thermal weight-loss temperature Ti); type: physicochemical; settings: for Ti (thermal weight-loss temperature), second number of the Tm/Ti cell: intercept of leading edge of weight loss with baseline
Description: As results of measurement of thermal properties of the quinolinium derivative according to the present invention using differential scanning calorimetry (DSC) and thermogravimetric analysis (TGA) at a scanning rate of 10° C./min, the thermal weight-loss temperature Ti was estimated as a temperature at the intercept of the leading edge of the weight loss by the baseline of TGA scans.

[2] = Solubility in methanol
From the text: Meanwhile, the solubility in methanol of the quinolinium derivative according to the present invention is illustrated in (a) of FIG. 6. […] The solid line in the graph is based on the known Van't Hoff thermodynamic equilibrium equation using an ideal solution.

| Ti (thermal weight-loss temperature), second number of the Tm/Ti cell ([1]; TGA, 10° C./min) | thermal stability of the crystal (FIG. 2) ([1]; TGA, 10° C./min) [°C] | Compound | solubility in methanol [2] [g/100 g methanol] | thermal stability of the crystal (FIG. 2) [1] | solubility in methanol as a reaction solvent ([2]; methanol, temperature not given) [g/100 g methanol] |
| --- | --- | --- | --- | --- | --- |
| 212/325 °C | – | CC1(C)CC(C=Cc2ccc(O)cc2)=CC(=C(C#N)C#N)C1 [OH1, 2-(3-(4-hydroxystyryl)-5,5-dimethylcyclohex-2-enylidene)malononitrile, reference compound] | – | – | – |
| 265/291 °C | – | 2-(4-hydroxy-3-methoxystyryl)-1-methylquinolinium 4-methoxylbenzenesulfonate [HMQ-MBS] | 0.56 | – | – |

More lines, now with the values behind:

| Compound | Ti (thermal weight-loss temperature), second number of the Tm/Ti cell ([1]; TGA, 10° C./min) | thermal stability of the crystal (FIG. 2) ([1]; TGA, 10° C./min) [°C] | solubility in methanol [2] [g/100 g methanol] | thermal stability of the crystal (FIG. 2) [1] | solubility in methanol as a reaction solvent ([2]; methanol, temperature not given) [g/100 g methanol] |
| --- | --- | --- | --- | --- | --- |
| CN(C)c1ccc(C=Cc2cc[n+](C)cc2)cc1.Cc1ccc(S(=O)(=O)[O-])cc1 [DAST, N,N-dimethylamino-N′-methylstilbazolium 4-methylbenzenesulfonate, reference compound] | 250/250 °C | 260 | – | – | – |
| COc1cc(C=Cc2ccc3ccccc3[n+]2C)ccc1O.Cc1ccc(S(=O)(=O)[O-])cc1 [HMQ-T, 2-(4-hydroxy-3-methoxystyryl)-1-methylquinolinium 4-methylbenzenesulfonate] | 273/297 °C | – | 0.89 | exceeding 290 °C | – |
| COc1cc(C=Cc2ccc3ccccc3[n+]2C)ccc1O.[I+] [HMQ-I, 2-(4-hydroxy-3-methoxystyryl)-1-methylquinolinium iodine] | – | – | – | – | 0.14 |
